Laboratory results published in patent publication US20070248996A1, “Modulators of beta-amyloid peptide aggregation comprising D-amino acids” (Paraecis Pharmaceuticals, Inc., priority 1995, published 2007).
Like-named read-outs stand apart in the source and are kept apart here.

Tests used:
[1] = Brain uptake of tritium-labelled PPI-558 after subcutaneous injection; conditions: male rats, single subcutaneous injection 4.6 mg/kg, 2 hours (FIG. 4)
Experimental: Male Sprague-Dawley rats (259-280 g) received a single subcutaneous injection in the nape of the neck (4.6 mg/kg at 1 ml/kg=4.6 mg/ml in 100% Sesame Oil). At various time points post administration (2, 8 and 24 hours; n=4/time point), the animlas were anesthetized. Trunk blood was taken to determine plasma levels of the parent compound and the left side of the brain was perfused with 1 ml of saline over 30 seconds via the left sommon carotid artery. The brain was rapidly removed and the left forebrain (perfused) was subjected to capillary depletion.

Aβ1-40 = Aβ1-40 (Homo sapiens, UniProt P05067); format: biochemical; conditions: for ΔLag 5.0 μM: Table VI, 5.0 μM test compound; for ΔLag 3 μM: 3 μM test compound; for ΔLag 4 μM: 4 μM test compound
Sequence of Aβ1-40 (P05067 672-711): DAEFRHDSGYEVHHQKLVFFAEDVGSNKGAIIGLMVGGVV
Source text: The nucleation assay is employed to determine the ability of test compounds to alter (e.g. inhibit) the early events in formation of β-AP fibers from monomeric β-AP. Characteristic of a nucleated polymerization mechanism, a lag time is observed prior to nucleation, after which the peptide rapidly forms fibers as reflected in a linear rise in turbidity. The time delay before polymerization of β-AP monomer can be quantified as well as the extent of formation of insoluble fiber by light scattering (turbidity). Polymerization reaches equilibrium when the maximum turbidity reaches a plateau The turbidity of a solution of natural β-AP in the absence or presence of various concentrations of a β-amyloid modulator compound is determined by measuring the apparent absorbance of the solution at 405 nm (A405 nm) over time. The threshold of sensitivity for the measurement of turbidity is in the range of 15-20 μM β-AP. […] This assay can be performed using stirring or shaking to accelerate polymerization, thereby increasing the speed of the assay. Moreover the assay can be adapted to a 96-well plate format to screen multiple compounds.
HFIP-solubilized peptide is sonicated in a waterbath sonicator for 5 min at highest setting, then evaporated to dryness under a stream of argon. The peptide film is resuspended in anhydrous dimethylsulfoxide (DMSO) at a concentration of 6.9 mg/ml (25× concentration), sonicated for 5 min as before, then filtered through a 0.2 micron nylon syringe filter (VWR cat. No.28196-050). Test compounds are dissolved in DMSO at a 100× concentration. […] Ten microliters of the mixture is then added to the bottom of a well of a Corning Costar ultra low binding 96-well plate (Coming Costar, Cambridge Mass.; cat. No. 2500). Ninety microliters of water is added to the well, the plate is shaken on a rotary shaken at a constant speed at room temperature for 30 seconds, an additional 100 μl of 2× PTL buffer (20 mM NaH2PO4, 300 mM NaCl, pH 7.4) is added to the well, the plate is reshaken for 30 seconds and a baseline (t=0) turbidity reading is taken by measuring the apparent absorbance at 405 nm using a Bio-Rad Model 450 Microplate Reader. The plate is then returned to the shaker and shaken continuously for 5 hours. Turbidity readings are taken at 15 minute intervals.
β-amyloid aggregation in the absence of any modulators results in enhanced turbidity of the natural β-AP solution (i.e., an increase in the apparent absorbance at 405 nm over time). […]

[2] = Safety profile for PPI-558, daily subcutaneous injection for 14 days; conditions: female rats, 3 and 30 mg/kg s.c. daily for 14 days
Experimental: On day 15, animals were sacrificed 1 hour post administration.

[3] = Modulator compound stability in cerebrospinal fluid; conditions: 75% Rhesus monkey CSF, 37° C., 24 hours, HPLC; compared with PPI-368 (FIG. 1)
Experimental: The stability of a modulator compound in cerebrospinal fluid (CSF) can be assayed in an in vitro assay as follows. […] All sample handling is carried out in a laminar flow hood and test solutions are maintained at 37° C. during the assay. […] Samples (at the 0 time point and the 24 hour time point) are analyzed at room temperature using reverse-phase HPLC. A microbore column is used to maximize sensitivity. The parameters for analytical HPLC are as follows:
Chromatographic analysis is performed using a Hewlett Packard 1090 series II HPLC. The column used for separation is a C4, 5 μm, 1×250 mm (Vydac #214TP51). The flow rate is 50 μL/min and the elution profile of the test compounds is monitored at 214, 230, 260 and 280 nm.

[4] = Table IV, hydrophobic modifying groups, 5 μM test compound
[5] = Table V, hydroxylated and oxygenated modifying groups, 5 μM test compound
[6] = Table I, 5 μM Aβ1-40, 2 μM test compound, ratio of lag time with compound to lag time of control
[7] = Table I, 5 μM Aβ1-40, 5 μM test compound, ratio of lag time to control
[8] = Table II, second series, different stock of Aβ1-40, 2 μM test compound
[9] = Table II, second series, different stock of Aβ1-40
[10] = Table II, second series, different stock of Aβ1-40, 5 μM test compound
[11] = Table III, modifying groups derived from bile acids, 5 μM test compound

## 4-Hydroxybenzoyl-D-Leu-D-Val-D-Phe-D-Phe-D-Ala-NH2 [PPI-558]
[1]
  ratio of brain versus plasma levels: almost twice
Aβ1-40; Table VIII, 5 μM test compound
  ΔLag 5 μM: 2.0
[2]
  overt toxicity: No overt toxicity was observed

## CC(C)C[C@@H](NC(=O)CC[C@@H](C)[C@H]1CC[C@H]2[C@@H]3[C@H](O)C[C@@H]4C[C@H](O)CC[C@]4(C)[C@H]3C[C@H](O)[C@]12C)C(=O)N[C@@H](C(=O)N[C@H](Cc1ccccc1)C(=O)N[C@H](Cc1ccccc1)C(=O)N[C@H](C)C(=O)O)C(C)C [PPI-433, cholyl-D-Leu-D-Val-D-Phe-D-Phe-D-Ala-OH]
[3]
  stability in cerebrospinal fluid: significantly greater stability in CSF than the L-amino acid-based compound

## Ac-d(LVFFA)-nh2 [PPI-501]
Aβ1-40; Table IX, 5 μM test compound
  ΔLag 5 μM: 1.4

## Acetyl-d(LV(IodoY)FA)-nh2 [PPI-506]
Aβ1-40
  ΔLag 5.0 μM: 1.0

## Acetyl-d(LVYFA)-nh2 [PPI-505]
Aβ1-40
  ΔLag 5.0 μM: 1.0

## Acetyl-d(VF)-PEA [PPI-495]
Aβ1-40; [4]
  ΔLag 5 μM: 1.0

## Benzoylpropanoyl-d(LVFF)-nh2 [PPI-489]
Aβ1-40; [5]
  ΔLag 5 μM: 1.2

## Butanoyl-d(LVFFA)-nh2 [PPI-525]
Aβ1-40; [4]
  ΔLag 5 μM: 1.0

## CA-LVYFA-cooh [PPI-399]
Aβ1-40; [6]
  ΔLag 2 μM: 3.0
Aβ1-40; [7]
  ΔLag 5 μM: 6

## CA-d(AFFVL)-cooh [PPI-454]
Aβ1-40; [6]
  ΔLag 2 μM: 4.0
Aβ1-40; [7]
  ΔLag 5 μM: >12

## CA-d(LV(IY)FA)-oh [PPI-462]
Aβ1-40; [8]
  ΔLag 2 μM: 2.7
Aβ1-40; [9]
  ΔLag 3 μM: >2.7
  ΔLag 4 μM: >2.7
Aβ1-40; [10]
  ΔLag 5 μM: >2.7

## CA-d(LVF(IY)A)-oh [PPI-463]
Aβ1-40; [8]
  ΔLag 2 μM: >2.7
Aβ1-40; [9]
  ΔLag 3 μM: >2.7
  ΔLag 4 μM: >2.7
Aβ1-40; [10]
  ΔLag 5 μM: >2.7

## CA-d(LVYFA)-oh [PPI-455]
Aβ1-40; [8]
  ΔLag 2 μM: 1.8
Aβ1-40; [9]
  ΔLag 3 μM: 2.0
  ΔLag 4 μM: 2.3
Aβ1-40; [10]
  ΔLag 5 μM: >2.7

## Chenodeoxycholyl-LVFFA-oh [PPI-521]
Aβ1-40; [11]
  ΔLag 5 μM: >2.3
Aβ1-40; Table IX, 5 μM test compound
  ΔLag 5 μM: 3.6

## Cholyl-LVFFA-oh [PPI-424]
Aβ1-40; [11]
  ΔLag 5 μM: >6.0

## D-3-Phenyllactyl-d(AFFVL)-nh2 [PPI-607]
Aβ1-40; Table IX, 5 μM test compound
  ΔLag 5 μM: 3.1

## D-3-Phenyllactyl-d(FFFVL)-nh2 [PPI-635]
Aβ1-40; Table IX, 5 μM test compound
  ΔLag 5 μM: 2.5

## D-3-Phenyllactyl-d(FFVL)-nh2 [PPI-612]
Aβ1-40; Table IX, 5 μM test compound
  ΔLag 5 μM: 2.1

## DL-3-(4-Hydroxyphenyl)Lactyl-d(LVFFA)-nh2 [PPI-599]
Aβ1-40; Table IX, 5 μM test compound
  ΔLag 5 μM: 1.4

## Dihphenylacetyl-d(LVFF)-nh2 [PPI-484]
Aβ1-40; [4]
  ΔLag 5 μM: 1.3

## Glycolyl-d(AFFLL)-nh2 [PPI-592]
Aβ1-40; Table IX, 5 μM test compound
  ΔLag 5 μM: 1.8

## Glycolyl-d(FFFVL)-nh2 [PPI-596]
Aβ1-40; Table IX, 5 μM test compound
  ΔLag 5 μM: 3.6
Aβ1-40; [5]
  ΔLag 5 μM: 3.6

## Glycolyl-d(LVFFA)-nh2 [PPI-535]
Aβ1-40; Table IX, 5 μM test compound
  ΔLag 5 μM: 1.3
Aβ1-40; [5]
  ΔLag 5 μM: 1.4

## H-d(A[homoPhe][homoPhe]VL)-nh2 [PPI-571]
Aβ1-40; Table X, 5 μM test compound
  ΔLag 5 μM: >6

## H-d(FFVL)-nh2 [PPI-602]
Aβ1-40; Table X, 5 μM test compound
  ΔLag 5 μM: 1.6

## H-d(LFFFL)-nh2 [PPI-638]
Aβ1-40; Table X, 5 μM test compound
  ΔLag 5 μM: >6

## H-d(LVFFL)-nh2 [PPI-655]
Aβ1-40; Table X, 5 μM test compound
  ΔLag 5 μM: >6

## Hydrocinnamoyl-d(FFFVL)-nh2 [PPI-636]
Aβ1-40; Table IX, 5 μM test compound
  ΔLag 5 μM: 1.7
